According to ChEMBL document CHEMBL3885881, “DrugMatrix”:

Species: Rattus norvegicus
Assay: DrugMatrix - Regimen: Daily Repeat
Type: toxicity, organism-based, Sprague-Dawley
Design: regimen Daily Repeat, gender Male, age 6-8 weeks
Settings: in vivo, po, route oral GAVAGE, […]; for ABSOLUTE BASOPHIL / ABSOLUTE EOSINOPHIL / ABSOLUTE LYMPHOCYTE / ABSOLUTE MONOCYTE / ABSOLUTE SEGMENTED NEUTROPHIL / BASOPHIL / EOSINOPHIL / ERYTHROCYTE COUNT / HEMATOCRIT / HEMOGLOBIN / LEUKOCYTE COUNT / LYMPHOCYTE / MEAN CORPUSCULAR HEMOGLOBIN / MEAN CORPUSCULAR HEMOGLOBIN CONCENTRATION / MEAN CORPUSCULAR VOLUME / MONOCYTE / NEUTROPHIL / NUCLEATED RED BLOOD CELLS / PLATELET COUNT: tissue Blood; for ALANINE AMINOTRANSFERASE / ALBUMIN / ALKALINE PHOSPHATASE / ASPARTATE AMINOTRANSFERASE / BLOOD UREA NITROGEN / CARBON DIOXIDE / CHLORIDE / CHOLESTEROL / CREATINE PHOSPHOKINASE / CREATININE / GLUCOSE / LACTATE DEHYDROGENASE / LIPASE / PHOSPHORUS / POTASSIUM / SODIUM / TOTAL BILIRUBIN / TOTAL PROTEIN / URIC ACID: tissue Plasma
[1] = 81 mg/kg, 72 h, dose level High, time 3 day
[2] = 81 mg/kg, 120 h, dose level High, time 5 day
[3] = 72 h, dose 8.1 mg/Kg, dose level Low, time 3 day
[4] = 120 h, dose 8.1 mg/Kg, dose level Low, time 5 day

Nc1ccc(Cc2ccc(N)cc2)cc1
ABSOLUTE BASOPHIL [1]: 0 CELLS/uL
ABSOLUTE EOSINOPHIL [1]: 75.33 CELLS/uL
ABSOLUTE LYMPHOCYTE [1]: 15902.67 CELLS/uL
ABSOLUTE MONOCYTE [1]: 589 CELLS/uL
ABSOLUTE SEGMENTED NEUTROPHIL [1]: 3066.33 CELLS/uL
BASOPHIL [1]: 0%
EOSINOPHIL [1]: 0.33%
ERYTHROCYTE COUNT [1]: 5.52 x10E6/uL
HEMATOCRIT [1]: 34.27%
HEMOGLOBIN [1]: 13.27 G/DL
LEUKOCYTE COUNT [1]: 19.63 x10E3/uL
LYMPHOCYTE [1]: 81.33%
MEAN CORPUSCULAR HEMOGLOBIN [1]: 24.13 pg
MEAN CORPUSCULAR HEMOGLOBIN CONCENTRATION [1]: 38.83 G/DL
MEAN CORPUSCULAR VOLUME [1]: 62.2 fL
MONOCYTE [1]: 3%
NEUTROPHIL [1]: 15.33%
NUCLEATED RED BLOOD CELLS [1]: 0.33 /100WBC
PLATELET COUNT [1]: 1017.33 x10E3/uL
ALANINE AMINOTRANSFERASE [1]: 253.67 u/L
ALBUMIN [1]: 3.4 G/DL
ALKALINE PHOSPHATASE [1]: 742 u/L
ASPARTATE AMINOTRANSFERASE [1]: 450.67 u/L
BLOOD UREA NITROGEN [1]: 10.67 mg/dL
CARBON DIOXIDE [1]: 24.33 mmol/L
CHLORIDE [1]: 102.33 MEQ/L
CHOLESTEROL [1]: 143.67 mg/dL
CREATINE PHOSPHOKINASE [1]: 1027.33 u/L
CREATININE [1]: 0.14 mg/dL
GLUCOSE [1]: 152 mg/dL
LACTATE DEHYDROGENASE [1]: 723.67 u/L
LIPASE [1]: 11 u/L
PHOSPHORUS [1]: 11.77 mg/dL
POTASSIUM [1]: 5.87 MEQ/L
SODIUM [1]: 142.6 MEQ/L
TOTAL BILIRUBIN [1]: 0.9 mg/dL
TOTAL PROTEIN [1]: 5.13 G/DL
URIC ACID [1]: 1.27 mg/dL
ABSOLUTE BASOPHIL [2]: 0 CELLS/uL
ABSOLUTE EOSINOPHIL [2]: 0 CELLS/uL
ABSOLUTE LYMPHOCYTE [2]: 23023 CELLS/uL
ABSOLUTE MONOCYTE [2]: 1729.67 CELLS/uL
ABSOLUTE SEGMENTED NEUTROPHIL [2]: 3714 CELLS/uL
BASOPHIL [2]: 0%
EOSINOPHIL [2]: 0%
ERYTHROCYTE COUNT [2]: 5.81 x10E6/uL
HEMATOCRIT [2]: 34.63%
HEMOGLOBIN [2]: 13.53 G/DL
LEUKOCYTE COUNT [2]: 28.47 x10E3/uL
LYMPHOCYTE [2]: 81%
MEAN CORPUSCULAR HEMOGLOBIN [2]: 23.33 pg
MEAN CORPUSCULAR HEMOGLOBIN CONCENTRATION [2]: 39.1 G/DL
MEAN CORPUSCULAR VOLUME [2]: 59.67 fL
MONOCYTE [2]: 6%
NEUTROPHIL [2]: 13%
NUCLEATED RED BLOOD CELLS [2]: 0 /100WBC
PLATELET COUNT [2]: 1124.33 x10E3/uL
ALANINE AMINOTRANSFERASE [2]: 131.67 u/L
ALBUMIN [2]: 3.4 G/DL
ALKALINE PHOSPHATASE [2]: 589 u/L
ASPARTATE AMINOTRANSFERASE [2]: 255.33 u/L
BLOOD UREA NITROGEN [2]: 14 mg/dL
CARBON DIOXIDE [2]: 28.33 mmol/L
CHLORIDE [2]: 101.67 MEQ/L
CHOLESTEROL [2]: 138.33 mg/dL
CREATINE PHOSPHOKINASE [2]: 541 u/L
CREATININE [2]: 0.23 mg/dL
GLUCOSE [2]: 138.33 mg/dL
LACTATE DEHYDROGENASE [2]: 636.33 u/L
LIPASE [2]: 11.67 u/L
PHOSPHORUS [2]: 9.3 mg/dL
POTASSIUM [2]: 5.58 MEQ/L
SODIUM [2]: 142.97 MEQ/L
TOTAL BILIRUBIN [2]: 0.83 mg/dL
TOTAL PROTEIN [2]: 5.7 G/DL
URIC ACID [2]: 1.2 mg/dL
ABSOLUTE BASOPHIL [3]: 0 CELLS/uL
ABSOLUTE EOSINOPHIL [3]: 0 CELLS/uL
ABSOLUTE LYMPHOCYTE [3]: 10998 CELLS/uL
ABSOLUTE MONOCYTE [3]: 210.33 CELLS/uL
ABSOLUTE SEGMENTED NEUTROPHIL [3]: 1658.33 CELLS/uL
BASOPHIL [3]: 0%
EOSINOPHIL [3]: 0%
ERYTHROCYTE COUNT [3]: 5.48 x10E6/uL
HEMATOCRIT [3]: 34.13%
HEMOGLOBIN [3]: 13.5 G/DL
LEUKOCYTE COUNT [3]: 12.87 x10E3/uL
LYMPHOCYTE [3]: 85.67%
MEAN CORPUSCULAR HEMOGLOBIN [3]: 24.7 pg
MEAN CORPUSCULAR HEMOGLOBIN CONCENTRATION [3]: 39.6 G/DL
MEAN CORPUSCULAR VOLUME [3]: 62.3 fL
MONOCYTE [3]: 1.67%
NEUTROPHIL [3]: 12.67%
NUCLEATED RED BLOOD CELLS [3]: 0 /100WBC
PLATELET COUNT [3]: 1052.33 x10E3/uL
ALANINE AMINOTRANSFERASE [3]: 74.67 u/L
ALBUMIN [3]: 3.93 G/DL
ALKALINE PHOSPHATASE [3]: 451 u/L
ASPARTATE AMINOTRANSFERASE [3]: 94.33 u/L
BLOOD UREA NITROGEN [3]: 12 mg/dL
CARBON DIOXIDE [3]: 24 mmol/L
CHLORIDE [3]: 102.67 MEQ/L
CHOLESTEROL [3]: 79 mg/dL
CREATINE PHOSPHOKINASE [3]: 294.67 u/L
CREATININE [3]: 0.2 mg/dL
GLUCOSE [3]: 157.33 mg/dL
LACTATE DEHYDROGENASE [3]: 177 u/L
LIPASE [3]: 12.33 u/L
PHOSPHORUS [3]: 12.33 mg/dL
POTASSIUM [3]: 5.95 MEQ/L
SODIUM [3]: 143.97 MEQ/L
TOTAL BILIRUBIN [3]: 0.17 mg/dL
TOTAL PROTEIN [3]: 5.47 G/DL
URIC ACID [3]: 1.27 mg/dL
ABSOLUTE BASOPHIL [4]: 0 CELLS/uL
ABSOLUTE EOSINOPHIL [4]: 0 CELLS/uL
ABSOLUTE LYMPHOCYTE [4]: 11058.67 CELLS/uL
ABSOLUTE MONOCYTE [4]: 46 CELLS/uL
ABSOLUTE SEGMENTED NEUTROPHIL [4]: 1295.33 CELLS/uL
BASOPHIL [4]: 0%
EOSINOPHIL [4]: 0%
ERYTHROCYTE COUNT [4]: 5.5 x10E6/uL
HEMATOCRIT [4]: 34.53%
HEMOGLOBIN [4]: 13.8 G/DL
LEUKOCYTE COUNT [4]: 12.4 x10E3/uL
LYMPHOCYTE [4]: 89.67%
MEAN CORPUSCULAR HEMOGLOBIN [4]: 25.13 pg
MEAN CORPUSCULAR HEMOGLOBIN CONCENTRATION [4]: 39.97 G/DL
MEAN CORPUSCULAR VOLUME [4]: 62.83 fL
MONOCYTE [4]: 0.33%
NEUTROPHIL [4]: 10%
NUCLEATED RED BLOOD CELLS [4]: 0 /100WBC
PLATELET COUNT [4]: 1265 x10E3/uL
ALANINE AMINOTRANSFERASE [4]: 63.67 u/L
ALBUMIN [4]: 4.2 G/DL
ALKALINE PHOSPHATASE [4]: 474 u/L
ASPARTATE AMINOTRANSFERASE [4]: 88.67 u/L
BLOOD UREA NITROGEN [4]: 11.33 mg/dL
CARBON DIOXIDE [4]: 35.33 mmol/L
CHLORIDE [4]: 100.33 MEQ/L
CHOLESTEROL [4]: 59.33 mg/dL
CREATINE PHOSPHOKINASE [4]: 280.67 u/L
CREATININE [4]: 0.16 mg/dL
GLUCOSE [4]: 138.67 mg/dL
LACTATE DEHYDROGENASE [4]: 317.67 u/L
LIPASE [4]: 10.67 u/L
PHOSPHORUS [4]: 10.57 mg/dL
POTASSIUM [4]: 6.26 MEQ/L
SODIUM [4]: 144.83 MEQ/L
TOTAL BILIRUBIN [4]: 0.2 mg/dL
TOTAL PROTEIN [4]: 5.93 G/DL
URIC ACID [4]: 1.4 mg/dL
